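Results reflect a 48-hour exposure of cells in 96-well plates to compound at five concentrations. Abbreviation: GI50, concentration required for 50% inhibition of growth. TGI: total growth inhibition.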
Legend:
Assay in all cases: NCI anticancer screen, dose series, 48 h
[1] = test system: HCT-15 colon
[2] = test system: T-47D breast
[3] = test system: SK-MEL-28 melanoma
[4] = test system: SF-295 CNS
[5] = test system: ACHN renal
[6] = test system: HT29 colon
[7] = test system: 786-0 renal
[8] = test system: RPMI-8226 leukemia
[9] = test system: SR leukemia
[10] = test system: MDA-MB-231 breast
[11] = test system: SF-268 CNS
[12] = test system: IGROV1 ovarian
[13] = test system: HCT-116 colon
[14] = test system: KM12 colon
[15] = test system: SN12C renal
[16] = test system: UACC-257 melanoma
[17] = test system: MALME-3M melanoma
[18] = test system: A549 NSCLC
[19] = test system: HCC-2998 colon
[20] = test system: CCRF-CEM leukemia
[21] = test system: OVCAR-5 ovarian
[22] = test system: UACC-62 melanoma
[23] = test system: PC-3 prostate
[24] = test system: SNB-19 CNS
[25] = test system: NCI/ADR-RES ovarian
[26] = test system: SK-MEL-5 melanoma
[27] = test system: SNB-75 CNS
[28] = test system: NCI-H460 lung
[29] = test system: K-562 leukemia
[30] = test system: M14 melanoma
[31] = test system: SW-620 colon
[32] = test system: MDA-MB-435
[33] = test system: NCI-H23 lung
[34] = test system: U251 CNS
[35] = test system: BT-549 breast
[36] = test system: CAKI-1 renal
[37] = test system: OVCAR-8 ovarian
[38] = test system: OVCAR-4 ovarian
[39] = test system: MOLT-4 leukemia
[40] = test system: HS 578T breast
[41] = test system: UO-31 renal
[42] = test system: COLO 205 colon
[43] = test system: RXF 393 renal
[44] = test system: EKVX NSCLC
[45] = test system: SK-OV-3 ovarian
[46] = test system: NCI-H522 lung
[47] = test system: TK-10 renal
[48] = test system: HOP-62 NSCLC
[49] = test system: MCF7 breast
[50] = test system: DU-145 prostate
[51] = test system: NCI-H226 lung
[52] = test system: SK-MEL-2 melanoma
[53] = test system: OVCAR-3 ovarian
[54] = test system: A498 renal
[55] = test system: LOX IMVI melanoma
[56] = test system: SF-539 CNS
[57] = test system: HOP-92 NSCLC
[58] = test system: HL-60(TB) leukemia

`OCCN(CCO)c1ccc2c(-c3ccccc3)cc(N(CCO)CCO)nc2n1` was tested, and the TGI [1] was > 100 µM, the TGI [2] was > 100 µM and the TGI [3] was > 100 µM. The TGI [4] was > 100 µM, the TGI [5] was > 100 µM and the TGI [6] was > 100 µM. For the same molecule, the TGI [7] was > 100 µM, the TGI [8] was > 100 µM and the TGI [9] was > 100 µM. For the same molecule, the TGI [10] was > 100 µM, the TGI [11] was > 100 µM and the TGI [12] was > 100 µM. For the same molecule, the TGI [13] was > 100 µM, the TGI [14] was > 100 µM and the TGI [15] was > 100 µM. The TGI [16] was > 100 µM, the TGI [17] was > 100 µM and the TGI [18] was > 100 µM. For the same molecule, the TGI [19] was > 100 µM, the TGI [20] was > 100 µM and the TGI [21] was > 100 µM. The TGI [22] was > 100 µM, the TGI [23] was > 100 µM and the TGI [24] was > 100 µM. For the same molecule, the TGI [25] was > 100 µM, the TGI [26] was > 100 µM and the TGI [27] was > 100 µM. The TGI [28] was > 100 µM, the TGI [29] was > 100 µM and the TGI [30] was > 100 µM. For the same molecule, the TGI [31] was > 100 µM, the TGI [32] was > 100 µM and the TGI [33] was > 100 µM. For the same molecule, the TGI [34] was > 100 µM, the TGI [35] was > 100 µM and the TGI [36] was > 100 µM. For the same molecule, the TGI [37] was > 100 µM, the TGI [38] was > 100 µM and the TGI [39] was > 100 µM. The TGI [40] was > 100 µM, the TGI [41] was > 100 µM and the TGI [42] was > 100 µM. For the same molecule, the TGI [43] was > 100 µM, the TGI [44] was > 100 µM and the TGI [45] was > 100 µM. For the same molecule, the TGI [46] was > 100 µM, the TGI [47] was > 100 µM and the TGI [48] was > 100 µM. For the same molecule, the TGI [49] was > 100 µM, the TGI [50] was > 100 µM and the TGI [51] was > 100 µM. For the same molecule, the TGI [52] was > 100 µM, the TGI [53] was > 100 µM and the TGI [54] was > 100 µM.

`Nc1c(C(=O)Nc2cccc(C(F)(F)F)c2)sc2nc3c(cc12)C(O)CCC3` (stereo not drawn) was tested, and the GI50 [1] was 1.93 µM, the TGI [1] was > 100 µM and the GI50 [2] was 8.69 µM. The TGI [2] was 66.8 µM, the GI50 [3] was 6.42 µM and the TGI [3] was > 100 µM. For the same molecule, the GI50 [4] was 3.07 µM, the TGI [4] was 38.4 µM and the GI50 [5] was 10.1 µM. The TGI [5] was > 68.4 µM, the GI50 [6] was 3.35 µM and the TGI [6] was > 100 µM. For the same molecule, the GI50 [7] was 13.7 µM, the TGI [7] was 44.8 µM and the GI50 [8] was 4.26 µM. For the same molecule, the TGI [8] was > 100 µM, the GI50 [9] was 0.61 µM and the TGI [9] was > 88.1 µM. For the same molecule, the GI50 [10] was 12.2 µM, the TGI [10] was > 100 µM and the GI50 [11] was 6.07 µM. The TGI [11] was > 67.1 µM, the GI50 [12] was 14.1 µM and the TGI [12] was > 100 µM. For the same molecule, the GI50 [13] was 3.02 µM, the TGI [13] was > 100 µM and the GI50 [14] was 3.28 µM. The TGI [14] was > 100 µM, the GI50 [15] was 11.1 µM and the TGI [15] was > 100 µM. The GI50 [16] was > 26.2 µM, the TGI [16] was > 100 µM and the GI50 [17] was 6.72 µM. The TGI [17] was > 68 µM, the GI50 [18] was 6.85 µM and the TGI [18] was > 79.4 µM. The GI50 [19] was > 61.2 µM, the TGI [19] was > 100 µM and the GI50 [20] was 3.4 µM. The TGI [20] was > 100 µM, the GI50 [55] was 5.68 µM and the TGI [55] was > 100 µM. The GI50 [21] was > 50 µM, the TGI [21] was > 100 µM and the GI50 [56] was 4 µM. The TGI [56] was > 41.9 µM, the GI50 [22] was 3.2 µM and the TGI [22] was > 100 µM. The GI50 [23] was 4.02 µM, the TGI [23] was 28.4 µM and the GI50 [24] was 14.4 µM. The TGI [24] was > 100 µM, the GI50 [25] was 6.14 µM and the TGI [25] was > 100 µM. For the same molecule, the GI50 [26] was 3.59 µM, the TGI [26] was > 81.6 µM and the GI50 [27] was 3.47 µM. For the same molecule, the TGI [27] was 18.1 µM, the GI50 [28] was 4.55 µM and the TGI [28] was > 100 µM. The GI50 [29] was 0.703 µM, the TGI [29] was > 100 µM and the GI50 [57] was 3.31 µM. It also gave a TGI [57] of 25.6 µM, a GI50 [30] of 3.18 µM and a TGI [30] of 99.5 µM. The GI50 [31] was 2.73 µM, the TGI [31] was > 100 µM and the GI50 [32] was 0.322 µM. The TGI [32] was 1.65 µM, the GI50 [33] was 15.2 µM and the TGI [33] was > 100 µM. For the same molecule, the GI50 [34] was 6.05 µM, the TGI [34] was 37.6 µM and the GI50 [35] was 7.27 µM. For the same molecule, the TGI [35] was > 100 µM, the GI50 [36] was 9.52 µM and the TGI [36] was > 100 µM. The GI50 [37] was 9.66 µM, the TGI [37] was > 100 µM and the GI50 [38] was 3.46 µM. The TGI [38] was > 46.6 µM, the GI50 [39] was 6.7 µM and the TGI [39] was > 100 µM. For the same molecule, the GI50 [40] was 6.23 µM, the TGI [40] was 96.9 µM and the GI50 [41] was 32.2 µM. For the same molecule, the TGI [41] was > 100 µM, the GI50 [42] was 3.79 µM and the TGI [42] was > 100 µM. The GI50 [43] was 5.65 µM, the TGI [43] was 50.8 µM and the GI50 [45] was 15.3 µM. For the same molecule, the TGI [45] was > 100 µM, the GI50 [46] was 12.7 µM and the TGI [46] was > 100 µM. For the same molecule, the GI50 [47] was 11.8 µM, the TGI [47] was 50.2 µM and the GI50 [48] was 6.82 µM. The TGI [48] was 39.4 µM, the GI50 [49] was 1.39 µM and the TGI [49] was > 100 µM. For the same molecule, the GI50 [50] was 5.44 µM, the TGI [50] was > 57.9 µM and the GI50 [51] was 10.8 µM. The TGI [51] was > 95.5 µM, the GI50 [52] was 6.69 µM and the TGI [52] was 56.4 µM. The GI50 [53] was 4.27 µM, the TGI [53] was > 49.3 µM and the GI50 [54] was 0.872 µM. For the same molecule, the TGI [54] was 27.7 µM, the GI50 [58] was 3.22 µM and the TGI [58] was > 100 µM.

— PubChem BioAssay (NCI)
